Assay results from PMC8002893, “Influence of Complexation of Thiosemicarbazone Derivatives with Cu (II) Ions on Their Antitumor Activity against Melanoma Cells” (International Journal of Molecular Sciences, 2021).
Several values for one entry are separate records, joined by “and”; a condition that tells them apart may be missing. Identical values can stand only once.

Columns and labels:
[1] = test system: BJ human normal fibroblast cells; assay: MTT cell viability assay, BJ normal fibroblasts; type: cell-based; conditions: MTT test, 24 h treatment
Protocol: (§1) The evaluation of cytotoxicity of tested compounds was carried out on the G361, A375, and SK-MEL-28 human melanoma cells and BJ human normal fibroblast cells. The cell lines were obtained from American Type Culture Collection (ATCC, Manassas, VA, USA). The cells were cultured at 37 °C in the presence of 5% CO2 in atmosphere. The culture medium (Dulbecco’s Modified Eagle’s Medium for G361 and A375 and Eagle’s Minimum Essential Medium for SK-MEL-28 and BJ) was supplemented with 10% foetal bovine serum. The cells morphology was examined under inverted phase contrast microscope Nikon Eclipse Ti (Nikon, Tokyo, Japan). The authenticity of tested cell lines was verified by short tandem repeat (STR) genotyping in the Department of Forensic Medicine (Medical University of Lublin, Lublin, Poland).
(§2) The cells were seeded into 96-well plates (in concentration: BJ, A375, and SK-MEL-28—1 × 10^5 cells/mL, G361—1.5 × 10^5 cells/mL) and cultured until they reach 70–80% confluency. Then the cells were incubated with tested compounds and dacarbazine in concentrations ranging from 10 to 500 µM or DMSO as vehicle in control cultures for next 24 h (max. DMSO concentration <0.5%). The compounds cytotoxicity was evaluated with the MTT colorimetric method based on the ability of viable cells to the transformation of tetrazolium salts (3-[4,5-dimethylthiazol-2-yl]-2,5-) diphenyltetrazolium bromide, MTT) to purple formazan, by cellular dehydrogenases. After 24-h-incubation cell cultures were supplemented with 20 µL of 5 mg/mL MTT (Thermofisher, Waltham, MA, USA) stock in PBS (Corning, NY, USA), and the incubation was continued for 4 h at 37 °C. Next, the medium with MTT was removed, and the formed crystals were dissolved in 200 µL of DMSO (dimethyl sulfoxide, Avantor, Gliwice, Poland). The solution absorbency was measured at 570 nm, using a PowerWave™ xs microplate spectrophotometer (BioTek Instruments, Winooski, VT, USA). The experiment was performed three times with three replicates for each concentration of tested compounds. IC50 values were determined using the AAT Bioquest IC50 calculator [51]. On the basis of obtained IC50 values for normal and malignant cells, A375 cell line and three tested compounds (CuT1, Cu10, CuT16) were chosen for further investigation.

PARP1 = assay: qRT-PCR gene expression in A375 cells: PARP1; type: cell-based, human; conditions: A375, 24 h, concentration corresponding to IC50; RQ = 2^-ΔΔCt vs control
Protocol: (§3) The expression level of genes connected with DNA repair and oxidative stress response was evaluated with quantitative real-time PCR (qRT-PCR) method. The A375 cells were seeded in 6-well culture plates at a density 1 × 10^5 cells/mL and after 70–80% confluency achievement the cells were treated with CuT1, Cu10, CuT16 in concentrations corresponding to IC50 values or DMSO as vehicle in control cultures. After 24h of incubation total RNA was isolated using the Syngen Blood/Cell RNA Mini Kit (Syngen Biotech, Wroclaw, Poland). All samples were transcribed using NG dART RT-PCR reagents (EURx, Gdansk, Poland) according to the manufacturer’s instructions. The relative mRNA expression level was determined by relative quantification method (ΔΔCt) using 18S ribosomal N5 (RNA18SN5) and beta-actin (ACTB) as endogenous controls. The reference genes were selected on the basis of our preliminary studies, where RNA18SN5 and ACTB remained unaffected by the experimental conditions. The PCR was conducted in triplicate using Applied Biosystems® 7500 Fast Real-Time PCR system (Applied Biosystems, Foster City, CA, USA) and SG qPCR Master Mix (2×) (EURx, Gdansk, Poland) in accordance with the manufacturer’s protocol. Data was presented and analysed as RQ values (RQ = 2^−ΔΔCt).

ERCC = assay: qRT-PCR gene expression in A375 cells: ERCC; type: cell-based, human; conditions: A375, 24 h, concentration corresponding to IC50; RQ = 2^-ΔΔCt vs control
Protocol: as §3

A375 cells = assay: Microscopic observation of cell morphology; type: cell-based, human; conditions: A375, 24 h, concentration corresponding to IC50
Protocol: The MTT test results for selected compounds were verified by microscopic observations of cell morphology. […] A large part of the cells floated in the culture medium (Figure 5).
as §1

OGG1 = assay: qRT-PCR gene expression in A375 cells: OGG1; type: cell-based, human; conditions: A375, 24 h, concentration corresponding to IC50; RQ = 2^-ΔΔCt vs control
Protocol: as §3

MGMT = assay: qRT-PCR gene expression in A375 cells: MGMT; type: cell-based, human; conditions: A375, 24 h, concentration corresponding to IC50; RQ = 2^-ΔΔCt vs control
Protocol: as §3

MSH2 = assay: qRT-PCR gene expression in A375 cells: MSH2; type: cell-based, human; conditions: A375, 24 h, concentration corresponding to IC50; RQ = 2^-ΔΔCt vs control
Protocol: as §3

ATM = assay: qRT-PCR gene expression in A375 cells: ATM; type: cell-based, human; conditions: A375, 24 h, concentration corresponding to IC50; RQ = 2^-ΔΔCt vs control
Protocol: as §3

MLH1 = assay: qRT-PCR gene expression in A375 cells: MLH1; type: cell-based, human; conditions: A375, 24 h, concentration corresponding to IC50; RQ = 2^-ΔΔCt vs control
Protocol: as §3

SOD2 = assay: qRT-PCR gene expression in A375 cells: SOD2; type: cell-based, human; conditions: A375, 24 h, concentration corresponding to IC50; RQ = 2^-ΔΔCt vs control
Protocol: as §3

GPX2 = assay: qRT-PCR gene expression in A375 cells: GPX2; type: cell-based, human; conditions: A375, 24 h, concentration corresponding to IC50; RQ = 2^-ΔΔCt vs control
Protocol: as §3

CAT = assay: qRT-PCR gene expression in A375 cells: CAT; type: cell-based, human; conditions: A375, 24 h, concentration corresponding to IC50; RQ = 2^-ΔΔCt vs control
Protocol: as §3

XPC = assay: qRT-PCR gene expression in A375 cells: XPC; type: cell-based, human; conditions: A375, 24 h, concentration corresponding to IC50; RQ = 2^-ΔΔCt vs control
Protocol: as §3

[2] = test system: A375 human melanoma cells; assay: MTT cell viability assay, A375 melanoma; type: cell-based; conditions: for IC50: A375, MTT test, 24 h treatment; for toxicity to A375 / malignant cells versus normal cells (in words): from IC50 values, MTT, 24 h
Protocol: as §1, §2

DNA of A375 cells = assay: DNA damage evaluation: number of AP sites; type: cell-based, human; conditions: A375, 24 h, concentration corresponding to IC50; control 0.67 ± 0.08
Protocol: DNA damage was evaluated on the basis of a basic (AP) sites presence, that arose in response to oxidative damage or as an intermediate in base excision repair pathway. The A375 cells were seeded in 6-well culture plates at a density 1 × 10^5 cells/mL and after 70–80% confluency achievement the cells were treated with CuT1, Cu10, CuT16 in concentrations corresponding to IC50 values or DMSO as vehicle in control cultures. After 24 h of incubation genomic DNA was isolated using Syngen DNA Mini Kit (Syngen Biotech, Wroclaw, Poland) according to the manufacturer’s instruction. The concentrations of isolated DNA for all samples were equalized to 100 µg/mL. The measurements of the number of AP sites were evaluated with DNA Damage Quantification Kit (Dojindo, Japan) according to the manufacturer’s instruction. The DNA was treated with Aldehyde Reactive Probe (ARP) to tag all of the AP sites with a biotin residue. Then all of the AP sites were quantified using avidin—biotin assay. The coloured product of horseradish peroxidase conjugated to the avidin was detected at 650 nm using a PowerWave™ xs microplate spectrophotometer (BioTek Instruments, Winooski, VT, USA).

[3] = test system: SK-MEL-28 human melanoma cells; assay: MTT cell viability assay, SK-MEL-28 melanoma; type: cell-based; conditions: SK-MEL-28, MTT test, 24 h treatment
Protocol: as §1, §2

[4] = test system: G361 human melanoma cells; assay: MTT cell viability assay, G361 melanoma; type: cell-based; conditions: G361, MTT test, 24 h treatment
Protocol: as §1, §2

## CNC(=S)NN=C(C)c1ccc(N)cc1 [T4, 2-[1-(4-Aminophenyl)ethylidene]-N-methyl-hydrazine-1-carbothioamide]
other
  melting point: 170 to 172 °C

## CC(=NNC(=S)Nc1ccccc1Cl)c1ccccc1 [T11, N-(2-Chlorophenyl)-2-(1-phenylethylidene)hydrazine-1-carbothioamide]
other
  melting point: 115 to 117 °C

## COc1ccc(C=NNC(=S)Nc2ccccc2Cl)cc1OC.COc1ccc(C=NNC(=S)Nc2ccccc2Cl)cc1OC.[Cl-].[Cl-].[Cu+2] [CuT10]
[1]
  IC50: 203 ± 8.67 µM
PARP1
  Mean RQ PARP1 mRNA: 0.342
ERCC
  Mean RQ ERCC mRNA: 1.215
A375 cells
  cell morphology (in words): became round and had poor adherence
OGG1
  Mean RQ OGG1 mRNA: 0.264 ± 0.071 and 0.264
MGMT
  Mean RQ MGMT mRNA: 0.448
MSH2
  Mean RQ MSH2 mRNA: 1.337
ATM
  Mean RQ ATM mRNA: 2.038
MLH1
  Mean RQ MLH1 mRNA: 0.337
SOD2
  Mean RQ SOD2 mRNA: 1.430
GPX2
  Mean RQ GPX2 mRNA: 0.022
CAT
  Mean RQ CAT mRNA: 0.801
XPC
  Mean RQ XPC mRNA: 1.456
[2]
  IC50: 26.1 ± 1.75 µM
  toxicity to A375 / malignant cells versus normal cells (in words): less toxic for normal cells
DNA of A375 cells
  AP sites number: 2.043 ± 0.02 AP/100 kbp
[3]
  IC50: 133 ± 8.34 µM
[4]
  IC50: 251 ± 11.1 µM

## COc1ccc(C=NNC(=S)Nc2ccccc2C)cc1OC [T7, 2-[(3,4-Dimethoxyphenyl)methylidene]-N-(2-methylphenyl)hydrazine-1-carbothioamide]
other
  melting point: 205 to 206 °C

## COc1ccc(C=NNC(=S)Nc2ccc(Cl)cc2)cc1OC [T16]
[1]; Homo sapiens, Fibroblast
  IC50: > 500 µM
other
  melting point: 200 to 202 °C
[2]; Homo sapiens, A-375
  IC50: > 500 µM
[3]; Homo sapiens
  IC50: > 500 µM
[4]; Homo sapiens, G-361
  IC50: > 500 µM

## COc1ccc(C=NNC(=S)Nc2ccccc2Cl)cc1OC [T10]
[1]; Homo sapiens, Fibroblast
  IC50: 402 ± 13 µM
other
  melting point: 179 to 180 °C
[2]; Homo sapiens, A-375
  IC50: 202 ± 4.87 µM
[3]; Homo sapiens
  IC50: < 500 µM
[4]; Homo sapiens, G-361
  IC50: 370 ± 9.34 µM

## S=C(NN=Cc1ccc(Br)cc1)Nc1ccc(Cl)cc1 [T18, 2-[(4-Bromophenyl)methylidene]-N-(4-chlorophenyl)hydrazine-1-carbothioamide]
other
  melting point: 182 to 184 °C

## COc1ccc(C=NNC(=S)Nc2ccccc2)cc1OC.[Cl-].[Cl-].[Cu+2] [CuT1]
[1]
  IC50: 257 ± 4.45 µM
PARP1
  Mean RQ PARP1 mRNA: 0.908
ERCC
  Mean RQ ERCC mRNA: 0.401
A375 cells
  cell morphology (in words): became round and had poor adherence
OGG1
  Mean RQ OGG1 mRNA: 0.902
MGMT
  Mean RQ MGMT mRNA: 0.715
MSH2
  Mean RQ MSH2 mRNA: 0.973
ATM
  Mean RQ ATM mRNA: 1.452
MLH1
  Mean RQ MLH1 mRNA: 1.001
SOD2
  Mean RQ SOD2 mRNA: 1.510
GPX2
  Mean RQ GPX2 mRNA: 0.000
CAT
  Mean RQ CAT mRNA: 0.773
XPC
  Mean RQ XPC mRNA: 1.038
[2]
  IC50: 69.9 ± 1.87 µM
  toxicity to A375 / malignant cells versus normal cells (in words): less toxic for normal cells
DNA of A375 cells
  AP sites number: 20.24 ± 0.19 AP/100 kbp
[3]
  IC50: 130 ± 3.98 µM
[4]
  IC50: 136 ± 7.01 µM

## S=C(NN=Cc1ccc(Br)cc1)Nc1ccccc1Cl [T9, 2-[(4-Bromophenyl)methylidene]-N-(2-chlorophenyl)hydrazine-1-carbothioamide]
other
  melting point: 209 to 211 °C
